The values that follow come from ChEMBL document CHEMBL6120974, “Hydrazide-Based Class I Selective HDAC Inhibitors Completely Reverse Chemoresistance Synergistically in Platinum-Resistant Solid Cancer Cells” (J Med Chem, 2024).

pIC50: −log10 of the molar value.

The target of data set [1] is Histone deacetylase 3 (Homo sapiens, UniProt O15379). Put plainly: Inhibition of HDAC3 (unknown origin).
The nature of data set [2]: Lipophilicity, logD of the compound in 1-octanol/PBS buffer at pH 7.4 by HPLC/UV analysis. The conditions noted are these: octanol/water. Type of data set: physicochemical.
Data set [3] deals with T1, Histone deacetylase 8 (Homo sapiens, UniProt Q9BY41).
T1 sequence (Q9BY41 whole entry): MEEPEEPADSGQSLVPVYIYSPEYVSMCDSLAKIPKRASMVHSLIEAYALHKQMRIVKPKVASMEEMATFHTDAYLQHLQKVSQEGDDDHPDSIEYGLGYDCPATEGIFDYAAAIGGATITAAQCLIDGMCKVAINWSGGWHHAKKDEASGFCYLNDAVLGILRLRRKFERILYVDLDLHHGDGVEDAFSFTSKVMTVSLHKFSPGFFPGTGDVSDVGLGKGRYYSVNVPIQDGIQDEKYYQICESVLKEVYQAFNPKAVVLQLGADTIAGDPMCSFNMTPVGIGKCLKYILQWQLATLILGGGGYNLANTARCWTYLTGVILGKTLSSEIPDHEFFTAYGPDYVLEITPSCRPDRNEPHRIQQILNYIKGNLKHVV
Put plainly: Inhibition of FLAG tagged full length human HDAC8 expressed in HEK293T cells using acyl-H3K9 peptide as substrate preincubated with compound for 20 mins followed by substrate addition and measured after 120 mins by HPLC analysis. It counts as cell-based.

Data set [4] deals with Histone deacetylase 4 (Homo sapiens, UniProt P56524). Put plainly: Inhibition of FLAG tagged full length human HDAC4 expressed in HEK293T cells using acyl-H3K9 peptide as substrate preincubated with compound for 20 mins followed by substrate addition and measured after 120 mins by HPLC analysis.
The target of data set [5] is Histone deacetylase 1 (Homo sapiens, UniProt Q13547). Put plainly: Inhibition of FLAG tagged full length human HDAC1 expressed in HEK293T cells using acyl-H3K9 peptide as substrate preincubated with compound for 20 mins followed by substrate addition and measured after 120 mins by HPLC analysis.
The subject of data set [6] is A2780cisR. Put plainly: cells. The conditions noted are these: Homo sapiens, 72 h.
Data set [7] has as its system A2780cisR. Put plainly: Induction of apoptosis in cisplatin resistant human A2780 cisR cells assessed as caspase-3/7 activation at 2 uM incubated for 48 hrs by capase3/7 green dye based analysis relative to control. Type of data set: functional.
The subject of data set [8] is MV4-11. Put plainly: cells. To be noted: Homo sapiens, MV4-11, 72 h.
Description: Cytotoxicity against human MV4-11 cells harboring wild type p53 assessed as cell viability incubated for 72 hrs by MTT assay
Data set [9] relates to CAL-27. Put plainly: Induction of apoptosis in human CAL-27 cells assessed as caspase-3/7 activation at 0.5 uM incubated for 48 hrs by capase3/7 green dye based analysis relative to control. Type of data set: functional.
Data set [10] can be described thus: Cytotoxicity against human HEK293 cells assessed as reduction in cell viability incubated for 72 hrs by MTT assay. It counts as toxicity, cell-based.
Data set [11] is described as follows: Induction of apoptosis in cisplatin resistant human Cal27CisR cells assessed as caspase-3/7 activation at 0.5 uM incubated for 48 hrs by capase3/7 green dye based analysis relative to control. It counts as functional.
For data set [12], the system named is CAL-27. Put plainly: cells. The conditions noted are these: Homo sapiens, CAL-27, 72 h.
Description: Cytotoxicity against human CAL-27 cells assessed as reduction in cell viability incubated for 72 hrs by MTT assay
The nature of data set [13]: cells. To be noted: Homo sapiens, Cal27CisR, 72 h.
Description: Cytotoxicity against cisplatin resistant human Cal27CisR cells assessed as reduction in cell viability incubated for 72 hrs by MTT assay
The test system of data set [14] is HL-60. Put plainly: cells. To be noted: Homo sapiens, HL-60, 72 h.
Description: Cytotoxicity against human HL-60 cells harboring p53 null assessed as cell viability incubated for 72 hrs by MTT assay
Data set [15] deals with A2780. Put plainly: Induction of apoptosis in human A2780 cells assessed as caspase-3/7 activation at 2 uM incubated for 48 hrs by capase3/7 green dye based analysis relative to control. Type of data set: functional.

Sequence of Histone deacetylase 3 (O15379 whole entry): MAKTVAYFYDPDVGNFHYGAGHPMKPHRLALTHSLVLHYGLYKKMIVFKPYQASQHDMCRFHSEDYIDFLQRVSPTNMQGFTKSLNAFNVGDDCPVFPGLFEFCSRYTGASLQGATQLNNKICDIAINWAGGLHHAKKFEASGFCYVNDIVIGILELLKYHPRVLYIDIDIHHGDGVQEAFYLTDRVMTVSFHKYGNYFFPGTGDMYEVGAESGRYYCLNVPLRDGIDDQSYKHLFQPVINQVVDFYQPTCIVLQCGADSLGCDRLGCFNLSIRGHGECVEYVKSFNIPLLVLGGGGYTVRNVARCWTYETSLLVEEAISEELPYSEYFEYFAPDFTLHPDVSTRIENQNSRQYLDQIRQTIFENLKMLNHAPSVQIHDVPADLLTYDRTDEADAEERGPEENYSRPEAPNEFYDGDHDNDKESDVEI
Sequence of Histone deacetylase 1 (Q13547 whole entry): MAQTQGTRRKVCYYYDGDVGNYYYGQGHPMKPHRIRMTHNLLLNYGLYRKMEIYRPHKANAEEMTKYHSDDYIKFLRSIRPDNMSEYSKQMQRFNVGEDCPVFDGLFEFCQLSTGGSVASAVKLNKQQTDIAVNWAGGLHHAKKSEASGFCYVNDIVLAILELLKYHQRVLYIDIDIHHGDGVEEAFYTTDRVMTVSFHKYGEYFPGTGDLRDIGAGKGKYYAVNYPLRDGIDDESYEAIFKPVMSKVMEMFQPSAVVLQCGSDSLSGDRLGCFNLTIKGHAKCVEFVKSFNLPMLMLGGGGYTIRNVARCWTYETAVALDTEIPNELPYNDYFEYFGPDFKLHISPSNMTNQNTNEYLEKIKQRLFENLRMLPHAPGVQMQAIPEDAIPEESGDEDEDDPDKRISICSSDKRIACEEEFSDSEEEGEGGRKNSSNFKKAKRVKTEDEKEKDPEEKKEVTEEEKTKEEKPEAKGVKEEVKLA
Sequence of Histone deacetylase 4 (P56524 whole entry): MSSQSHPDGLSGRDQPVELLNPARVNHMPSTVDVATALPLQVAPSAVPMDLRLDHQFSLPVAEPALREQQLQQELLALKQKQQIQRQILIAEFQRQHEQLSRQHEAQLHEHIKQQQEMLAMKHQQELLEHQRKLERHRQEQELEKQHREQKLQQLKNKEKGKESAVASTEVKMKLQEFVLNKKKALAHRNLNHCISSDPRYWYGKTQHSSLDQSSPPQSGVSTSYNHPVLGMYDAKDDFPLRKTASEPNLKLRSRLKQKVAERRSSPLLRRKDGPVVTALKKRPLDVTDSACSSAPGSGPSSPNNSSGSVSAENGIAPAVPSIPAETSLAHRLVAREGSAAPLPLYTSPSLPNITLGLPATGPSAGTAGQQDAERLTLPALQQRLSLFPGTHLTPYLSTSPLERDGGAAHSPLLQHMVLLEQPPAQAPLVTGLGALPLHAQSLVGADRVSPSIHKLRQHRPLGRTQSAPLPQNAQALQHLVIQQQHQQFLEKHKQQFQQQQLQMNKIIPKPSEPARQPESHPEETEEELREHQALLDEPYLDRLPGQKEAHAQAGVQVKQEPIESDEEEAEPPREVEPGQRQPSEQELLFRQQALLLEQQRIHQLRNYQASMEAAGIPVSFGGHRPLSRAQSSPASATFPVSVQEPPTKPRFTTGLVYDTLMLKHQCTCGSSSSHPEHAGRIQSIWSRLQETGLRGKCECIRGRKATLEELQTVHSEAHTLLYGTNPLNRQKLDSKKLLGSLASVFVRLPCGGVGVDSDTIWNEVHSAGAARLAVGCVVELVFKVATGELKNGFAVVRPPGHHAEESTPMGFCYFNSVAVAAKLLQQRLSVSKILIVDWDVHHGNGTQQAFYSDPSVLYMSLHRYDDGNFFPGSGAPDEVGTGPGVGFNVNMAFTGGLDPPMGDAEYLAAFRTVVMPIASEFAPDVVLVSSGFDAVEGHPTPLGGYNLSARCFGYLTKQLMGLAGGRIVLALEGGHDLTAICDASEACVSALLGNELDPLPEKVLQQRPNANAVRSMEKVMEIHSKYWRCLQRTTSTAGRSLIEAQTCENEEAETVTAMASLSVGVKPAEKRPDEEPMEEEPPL

Usually pIC50 stands for −log10 of the IC50, conventionally taken in molar units. Usually logD stands for lipophilicity at a set pH, counting ionised and neutral species. Read a low logD as lower lipophilicity. In turn, `CN(C)c1ccc(C(=O)N(CC(=O)NCc2ccccc2)Cc2ccc(C(=O)Nc3cc(-c4ccncc4)ccc3N)cc2)cc1` had a pIC50 in data set [1] of under 5.18. Moreover, the logD in data set [2] came to 3.16.

`CCCCCCCCCCCCCCCCNNC(=O)c1cccs1`: the pIC50 in data set [3], in data set [4] and in data set [5] was under 4.00 each time.

Usually IC50 stands for the midpoint of a concentration-inhibition curve. On to `Nc1ccccc1NC(=O)c1ccc(CNC(=O)OCc2cccnc2)cc1` [ENTINOSTAT], for which the pIC50 in [6] was 5.25; in data set [8] it was 6.39; in [12], 5.53; in [13], 5.44; in [14] it was 6.03. Further, the Activity in data set [7] is given as 15%; in data set [9] it was under 5%; in data set [11], under 5%; in data set [15], 10%. In addition, the IC50 at 72 h in [10] came out at 7.11 µM.
